# Reference: US9630977B2, “Cephalosporin derivatives and pharmaceutical compositions thereof” (Legochem Biosciences, Inc., priority 2011, dated 2017)
# System: A. baumannii 46
# Experiment: In vitro antibacterial activity test (broth microdilution)
# Type: cell-based
# Conditions: Acinetobacter baumannii; A. baumannii 46; read-out: MIC90
# Description: (§1) To evaluate antibacterial activity of each of the compounds of Examples 1 to 68, in vitro antibacterial activity test was performed.
# (§2) The in vitro antibacterial activity was evaluated by measuring MIC90 (ug/mL) of each of the compounds of Examples 1 to 68, which is defined as the lowest concentration of an antibiotic that will inhibit the visible growth of 90% of microorganisms after incubation as compared with a control group to which the antibiotic is not treated. MIC90 values were measured by the broth microdilution method developed by the Clinical and Laboratory Standards Institute (CLSI) (see CLSI M7-A5, Methods for Dilution Antimicrobial Susceptibility Test for Bacteria that Grow Aerobically-Fifth Edition (2000): CLSI, Villanova, Pa.).
# (§3) In vitro antibacterial activity was measured with respect to the following 19 clinical isolates: M. catarrhalis; P. aeruginosa (5 strains); K. pneumoniae (6 strains); A. baumannii (3 strains); E. coli (2 strains); A. calcoaceticus; and E. cloacae.
# (§4) Test compounds each (the cephalosporin derivative compounds prepared in Examples 1 to 68) were dissolved in DMSO at the concentration of 10,240 ug/mL, were diluted by two fold with DMSO, and then were diluted by twenty fold with sterilized distilled water. The final concentration in the antibacterial activity test was in the range of […] to 128 ug/mL, and the final concentration of DMSO used as an adjuvant was 2.5% (V/V).
row,Compound,MIC90 [µg/mL]
1,CC(C)(O/N=C(\C(=O)N[C@@H]1C(=O)N2C(C(=O)[O-])=C(C[n+]3cnc(N)c(NC(=O)CCNC(=O)c4cc(=O)c(O)cn4O)c3)CSC12)c1nsc(N)n1)C(=O)O (stereo partly shown) [Compound 19],4

# System: A. baumannii 49
# Experiment: as above
# Type: cell-based
# Conditions: Acinetobacter baumannii; A. baumannii 49; read-out: MIC90
# Description: as §1, §2, §3, §4
row,Compound,MIC90 [µg/mL]
1,CC(C)(O/N=C(\C(=O)N[C@@H]1C(=O)N2C(C(=O)[O-])=C(C[n+]3cnc(N)c(NC(=O)CCNC(=O)c4cc(=O)c(O)cn4O)c3)CSC12)c1nsc(N)n1)C(=O)O (stereo partly shown) [Compound 19],16

# System: A. baumannii 52
# Experiment: as above
# Type: cell-based
# Conditions: Acinetobacter baumannii; A. baumannii 52; read-out: MIC90
# Description: as §1, §2, §3, §4
row,Compound,MIC90 [µg/mL]
1,CC(C)(O/N=C(\C(=O)N[C@@H]1C(=O)N2C(C(=O)[O-])=C(C[n+]3cnc(N)c(NC(=O)CCNC(=O)c4cc(=O)c(O)cn4O)c3)CSC12)c1nsc(N)n1)C(=O)O (stereo partly shown) [Compound 19],8

# System: A. calcoaceticus ATCC15473
# Experiment: as above
# Type: cell-based
# Conditions: Acinetobacter calcoaceticus; A. calcoaceticus ATCC15473; read-out: MIC90
# Description: as §1, §2, §3, §4
row,Compound,MIC90 [µg/mL]
1,CC(C)(O/N=C(\C(=O)N[C@@H]1C(=O)N2C(C(=O)[O-])=C(C[n+]3cnc(N)c(NC(=O)CCNC(=O)c4cc(=O)c(O)cn4O)c3)CSC12)c1nsc(N)n1)C(=O)O (stereo partly shown) [Compound 19],0.5

# System: E. cloacae β19
# Experiment: as above
# Type: cell-based
# Conditions: Enterobacter cloacae, read-out: MIC90
# Description: as §1, §2, §3, §4
row,Compound,MIC90 [µg/mL]
1,CC(C)(O/N=C(\C(=O)N[C@@H]1C(=O)N2C(C(=O)[O-])=C(C[n+]3cnc(N)c(NC(=O)CCNC(=O)c4cc(=O)c(O)cn4O)c3)CSC12)c1nsc(N)n1)C(=O)O (stereo partly shown) [Compound 19],128

# System: E. coli AG100
# Experiment: as above
# Type: cell-based
# Conditions: Escherichia coli, AG100, E. coli AG100; read-out: MIC90
# Description: as §1, §2, §3, §4
row,Compound,MIC90 [µg/mL]
1,CC(C)(O/N=C(\C(=O)N[C@@H]1C(=O)N2C(C(=O)[O-])=C(C[n+]3cnc(N)c(NC(=O)CCNC(=O)c4cc(=O)c(O)cn4O)c3)CSC12)c1nsc(N)n1)C(=O)O (stereo partly shown) [Compound 19],1

# System: E. coli β4
# Experiment: as above
# Type: cell-based
# Conditions: Escherichia coli, read-out: MIC90
# Description: as §1, §2, §3, §4
row,Compound,MIC90 [µg/mL]
1,CC(C)(O/N=C(\C(=O)N[C@@H]1C(=O)N2C(C(=O)[O-])=C(C[n+]3cnc(N)c(NC(=O)CCNC(=O)c4cc(=O)c(O)cn4O)c3)CSC12)c1nsc(N)n1)C(=O)O (stereo partly shown) [Compound 19],16

# System: K. pneumoniae 2011E
# Experiment: as above
# Type: cell-based
# Conditions: Klebsiella pneumoniae, 2011E, K. pneumoniae 2011E; read-out: MIC90
# Description: as §1, §2, §3, §4
row,Compound,MIC90 [µg/mL]
1,CC(C)(O/N=C(\C(=O)N[C@@H]1C(=O)N2C(C(=O)[O-])=C(C[n+]3cnc(N)c(NC(=O)CCNC(=O)c4cc(=O)c(O)cn4O)c3)CSC12)c1nsc(N)n1)C(=O)O (stereo partly shown) [Compound 19],16

# System: K. pneumoniae β10
# Experiment: as above
# Type: cell-based
# Conditions: Klebsiella pneumoniae; K. pneumoniae β10; read-out: MIC90
# Description: as §1, §2, §3, §4
row,Compound,MIC90 [µg/mL]
1,CC(C)(O/N=C(\C(=O)N[C@@H]1C(=O)N2C(C(=O)[O-])=C(C[n+]3cnc(N)c(NC(=O)CCNC(=O)c4cc(=O)c(O)cn4O)c3)CSC12)c1nsc(N)n1)C(=O)O (stereo partly shown) [Compound 19],1

# System: K. pneumoniae β11
# Experiment: as above
# Type: cell-based
# Conditions: Klebsiella pneumoniae; K. pneumoniae β11; read-out: MIC90
# Description: as §1, §2, §3, §4
row,Compound,MIC90 [µg/mL]
1,CC(C)(O/N=C(\C(=O)N[C@@H]1C(=O)N2C(C(=O)[O-])=C(C[n+]3cnc(N)c(NC(=O)CCNC(=O)c4cc(=O)c(O)cn4O)c3)CSC12)c1nsc(N)n1)C(=O)O (stereo partly shown) [Compound 19],> 128

# System: K. pneumoniae β13
# Experiment: as above
# Type: cell-based
# Conditions: Klebsiella pneumoniae, K. pneumoniae β13; read-out: MIC90
# Description: as §1, §2, §3, §4
row,Compound,MIC90 [µg/mL]
1,CC(C)(O/N=C(\C(=O)N[C@@H]1C(=O)N2C(C(=O)[O-])=C(C[n+]3cnc(N)c(NC(=O)CCNC(=O)c4cc(=O)c(O)cn4O)c3)CSC12)c1nsc(N)n1)C(=O)O (stereo partly shown) [Compound 19],16

# System: K. pneumoniae β14
# Experiment: as above
# Type: cell-based
# Conditions: Klebsiella pneumoniae, read-out: MIC90
# Description: as §1, §2, §3, §4
row,Compound,MIC90 [µg/mL]
1,CC(C)(O/N=C(\C(=O)N[C@@H]1C(=O)N2C(C(=O)[O-])=C(C[n+]3cnc(N)c(NC(=O)CCNC(=O)c4cc(=O)c(O)cn4O)c3)CSC12)c1nsc(N)n1)C(=O)O (stereo partly shown) [Compound 19],128

# System: K. pneumoniae β9
# Experiment: as above
# Type: cell-based
# Conditions: Klebsiella pneumoniae, K. pneumoniae β9; read-out: MIC90
# Description: as §1, §2, §3, §4
row,Compound,MIC90 [µg/mL]
1,CC(C)(O/N=C(\C(=O)N[C@@H]1C(=O)N2C(C(=O)[O-])=C(C[n+]3cnc(N)c(NC(=O)CCNC(=O)c4cc(=O)c(O)cn4O)c3)CSC12)c1nsc(N)n1)C(=O)O (stereo partly shown) [Compound 19],64

# System: M. catarrhalis 2524
# Experiment: as above
# Type: cell-based
# Conditions: Moraxella catarrhalis; M. catarrhalis 2524; read-out: MIC90
# Description: as §1, §2, §3, §4
row,Compound,MIC90 [µg/mL]
1,CC(C)(O/N=C(\C(=O)N[C@@H]1C(=O)N2C(C(=O)[O-])=C(C[n+]3cnc(N)c(NC(=O)CCNC(=O)c4cc(=O)c(O)cn4O)c3)CSC12)c1nsc(N)n1)C(=O)O (stereo partly shown) [Compound 19],1

# System: P. aeruginosa 1912E
# Experiment: as above
# Type: cell-based
# Conditions: Pseudomonas aeruginosa, 1912E, read-out: MIC90
# Description: as §1, §2, §3, §4
row,Compound,MIC90 [µg/mL]
1,CC(C)(O/N=C(\C(=O)N[C@@H]1C(=O)N2C(C(=O)[O-])=C(C[n+]3cnc(N)c(NC(=O)CCNC(=O)c4cc(=O)c(O)cn4O)c3)CSC12)c1nsc(N)n1)C(=O)O (stereo partly shown) [Compound 19],2

# System: P. aeruginosa 37
# Experiment: as above
# Type: cell-based
# Conditions: Pseudomonas aeruginosa, 37, P. aeruginosa 37; read-out: MIC90
# Description: as §1, §2, §3, §4
row,Compound,MIC90 [µg/mL]
1,CC(C)(O/N=C(\C(=O)N[C@@H]1C(=O)N2C(C(=O)[O-])=C(C[n+]3cnc(N)c(NC(=O)CCNC(=O)c4cc(=O)c(O)cn4O)c3)CSC12)c1nsc(N)n1)C(=O)O (stereo partly shown) [Compound 19],0.5

# System: P. aeruginosa 40
# Experiment: as above
# Type: cell-based
# Conditions: Pseudomonas aeruginosa, 40, P. aeruginosa 40; read-out: MIC90
# Description: as §1, §2, §3, §4
row,Compound,MIC90 [µg/mL]
1,CC(C)(O/N=C(\C(=O)N[C@@H]1C(=O)N2C(C(=O)[O-])=C(C[n+]3cnc(N)c(NC(=O)CCNC(=O)c4cc(=O)c(O)cn4O)c3)CSC12)c1nsc(N)n1)C(=O)O (stereo partly shown) [Compound 19],0.5

# System: P. aeruginosa 43
# Experiment: as above
# Type: cell-based
# Conditions: Pseudomonas aeruginosa; P. aeruginosa 43; read-out: MIC90
# Description: as §1, §2, §3, §4
row,Compound,MIC90 [µg/mL]
1,CC(C)(O/N=C(\C(=O)N[C@@H]1C(=O)N2C(C(=O)[O-])=C(C[n+]3cnc(N)c(NC(=O)CCNC(=O)c4cc(=O)c(O)cn4O)c3)CSC12)c1nsc(N)n1)C(=O)O (stereo partly shown) [Compound 19],2

# System: P. aeruginosa 6065Y
# Experiment: as above
# Type: cell-based
# Conditions: Pseudomonas aeruginosa, read-out: MIC90
# Description: as §1, §2, §3, §4
row,Compound,MIC90 [µg/mL]
1,CC(C)(O/N=C(\C(=O)N[C@@H]1C(=O)N2C(C(=O)[O-])=C(C[n+]3cnc(N)c(NC(=O)CCNC(=O)c4cc(=O)c(O)cn4O)c3)CSC12)c1nsc(N)n1)C(=O)O (stereo partly shown) [Compound 19],2
